Data from patent publication US20150352177A1, “Method Of Treating An Ocular Disease And Compositions Effective For Treating An Ocular Disease” (Howard University, priority 2012, published 2015).

Tested on: severe endophthalmitis
Experiment: Combination therapy treatment of a subject with severe endophthalmitis (single case)
Format: in vivo, human
Details: topical Ceftazidime, Vancomycin and Prednisolone eye drops every two hours, without efflux transporter inhibitor, over two days, vision dropped to no light perception
Procedure: A uniocular subject was diagnosed with severe endophthalmitis in their only functioning eye. […] The subject was treated with an aggressive treatment regimen of topical antibiotics Ceftazidime eye drops, Vancomycin eye drops and steroid Prednisolone eye drops every two hours.
Cyclosporin A (sold as […]® from Allergan, Inc.) was added to the treatment regimen and was administered prior to administering the antibiotic and steroid eye drops.
The Ceftriaxone was added to the regimen to increase the aggressiveness of the therapy with the goal of preventing or eliminating any traces of infection in the retina, which can result in irreversible blindness.

Row | SMILES | improvement under initial treatment regimen
1 | CN[C@H](CC(C)C)C(=O)N[C@H]1C(=O)N[C@@H](CC(N)=O)C(=O)N[C@H]2C(=O)N[C@H]3C(=O)N[C@H](C(=O)N[C@H](C(=O)O)c4cc(O)cc(O)c4-c4cc3ccc4O)[C@H](O)c3ccc(c(Cl)c3)Oc3cc2cc(c3O[C@@H]2O[C@H](CO)[C@@H](O)[C@H](O)[C@H]2O[C@H]2C[C@](C)(N)[C@H](O)[C@H](C)O2)Oc2ccc(cc2Cl)[C@H]1O [Vancomycin] | no improvement
2 | C[C@]12C=CC(=O)C=C1CC[C@@H]1[C@@H]2[C@@H](O)C[C@@]2(C)[C@H]1CC[C@]2(O)C(=O)CO [Prednisolone] | no improvement
3 | CC(C)(O/N=C(\C(=O)N[C@@H]1C(=O)N2C(C(=O)[O-])=C(C[n+]3ccccc3)CS[C@H]12)c1csc(N)n1)C(=O)O [Ceftazidime] | no improvement
